From ChEMBL document CHEMBL3885881, “DrugMatrix”

Species: Rattus norvegicus
Assay: DrugMatrix - Regimen: Daily Repeat
Type: toxicity, organism-based, Sprague-Dawley
Parameters: regimen Daily Repeat, gender Male, age 6-8 weeks
Conditions: in vivo, po, route oral GAVAGE, vehicle 100 % WATER; for ABSOLUTE BASOPHIL / ABSOLUTE EOSINOPHIL / ABSOLUTE LYMPHOCYTE / ABSOLUTE MONOCYTE / ABSOLUTE SEGMENTED NEUTROPHIL / BASOPHIL / EOSINOPHIL / ERYTHROCYTE COUNT / HEMATOCRIT / HEMOGLOBIN / LEUKOCYTE COUNT / LYMPHOCYTE / MEAN CORPUSCULAR HEMOGLOBIN / MEAN CORPUSCULAR HEMOGLOBIN CONCENTRATION / MEAN CORPUSCULAR VOLUME / MONOCYTE / NEUTROPHIL / NUCLEATED RED BLOOD CELLS / PLATELET COUNT: tissue Blood; for ALANINE AMINOTRANSFERASE / ALBUMIN / ALKALINE PHOSPHATASE / ASPARTATE AMINOTRANSFERASE / BLOOD UREA NITROGEN / CARBON DIOXIDE / CHLORIDE / CHOLESTEROL / CREATINE PHOSPHOKINASE / CREATININE / GLUCOSE / LACTATE DEHYDROGENASE / LIPASE / PHOSPHORUS / POTASSIUM / SODIUM / TOTAL BILIRUBIN / TOTAL PROTEIN / URIC ACID: tissue Plasma
[1] = 27 mg/kg, 120 h, dose level Low, time 5 day
[2] = 54 mg/kg, 72 h, dose level High, time 3 day
[3] = 54 mg/kg, 120 h, dose level High, time 5 day

Compound: CNNCc1ccc(C(=O)NC(C)C)cc1 [PROCARBAZINE]
- ABSOLUTE BASOPHIL [1]: 0 CELLS/uL
- ABSOLUTE EOSINOPHIL [1]: 16.67 CELLS/uL
- ABSOLUTE LYMPHOCYTE [1]: 6271.33 CELLS/uL
- ABSOLUTE MONOCYTE [1]: 33.33 CELLS/uL
- ABSOLUTE SEGMENTED NEUTROPHIL [1]: 112 CELLS/uL
- BASOPHIL [1]: 0%
- EOSINOPHIL [1]: 0.33%
- ERYTHROCYTE COUNT [1]: 5.26 x10E6/uL
- HEMATOCRIT [1]: 33.2%
- HEMOGLOBIN [1]: 13.37 G/DL
- LEUKOCYTE COUNT [1]: 6.43 x10E3/uL
- LYMPHOCYTE [1]: 97.33%
- MEAN CORPUSCULAR HEMOGLOBIN [1]: 25.4 pg
- MEAN CORPUSCULAR HEMOGLOBIN CONCENTRATION [1]: 40.27 G/DL
- MEAN CORPUSCULAR VOLUME [1]: 63.07 fL
- MONOCYTE [1]: 0.67%
- NEUTROPHIL [1]: 1.67%
- NUCLEATED RED BLOOD CELLS [1]: 0 /100WBC
- PLATELET COUNT [1]: 1312.67 x10E3/uL
- ALANINE AMINOTRANSFERASE [1]: 59.67 u/L
- ALBUMIN [1]: 4.33 G/DL
- ALKALINE PHOSPHATASE [1]: 347 u/L
- ASPARTATE AMINOTRANSFERASE [1]: 78.67 u/L
- BLOOD UREA NITROGEN [1]: 13.67 mg/dL
- CARBON DIOXIDE [1]: 33.67 mmol/L
- CHLORIDE [1]: 98 MEQ/L
- CHOLESTEROL [1]: 69 mg/dL
- CREATINE PHOSPHOKINASE [1]: 304.67 u/L
- CREATININE [1]: 0.18 mg/dL
- GLUCOSE [1]: 140.67 mg/dL
- LACTATE DEHYDROGENASE [1]: 152 u/L
- LIPASE [1]: 15.33 u/L
- PHOSPHORUS [1]: 9.77 mg/dL
- POTASSIUM [1]: 5.23 MEQ/L
- SODIUM [1]: 144.95 MEQ/L
- TOTAL BILIRUBIN [1]: 0.13 mg/dL
- TOTAL PROTEIN [1]: 6.07 G/DL
- URIC ACID [1]: 0.77 mg/dL
- ABSOLUTE BASOPHIL [2]: 0 CELLS/uL
- ABSOLUTE EOSINOPHIL [2]: 27.33 CELLS/uL
- ABSOLUTE LYMPHOCYTE [2]: 4383.67 CELLS/uL
- ABSOLUTE MONOCYTE [2]: 36 CELLS/uL
- ABSOLUTE SEGMENTED NEUTROPHIL [2]: 119.67 CELLS/uL
- BASOPHIL [2]: 0%
- EOSINOPHIL [2]: 0.67%
- ERYTHROCYTE COUNT [2]: 5.22 x10E6/uL
- HEMATOCRIT [2]: 33.2%
- HEMOGLOBIN [2]: 13 G/DL
- LEUKOCYTE COUNT [2]: 4.57 x10E3/uL
- LYMPHOCYTE [2]: 96%
- MEAN CORPUSCULAR HEMOGLOBIN [2]: 24.93 pg
- MEAN CORPUSCULAR HEMOGLOBIN CONCENTRATION [2]: 39.17 G/DL
- MEAN CORPUSCULAR VOLUME [2]: 63.7 fL
- MONOCYTE [2]: 0.67%
- NEUTROPHIL [2]: 2.67%
- NUCLEATED RED BLOOD CELLS [2]: 0 /100WBC
- PLATELET COUNT [2]: 1130.67 x10E3/uL
- ALANINE AMINOTRANSFERASE [2]: 49.67 u/L
- ALBUMIN [2]: 4.13 G/DL
- ALKALINE PHOSPHATASE [2]: 355.67 u/L
- ASPARTATE AMINOTRANSFERASE [2]: 81.67 u/L
- BLOOD UREA NITROGEN [2]: 13 mg/dL
- CARBON DIOXIDE [2]: 33.67 mmol/L
- CHLORIDE [2]: 100 MEQ/L
- CHOLESTEROL [2]: 90 mg/dL
- CREATINE PHOSPHOKINASE [2]: 291.67 u/L
- CREATININE [2]: 0.1 mg/dL
- GLUCOSE [2]: 146.67 mg/dL
- LACTATE DEHYDROGENASE [2]: 99 u/L
- LIPASE [2]: 9 u/L
- PHOSPHORUS [2]: 9.63 mg/dL
- POTASSIUM [2]: 5.66 MEQ/L
- SODIUM [2]: 145.5 MEQ/L
- TOTAL BILIRUBIN [2]: 0.1 mg/dL
- TOTAL PROTEIN [2]: 6 G/DL
- URIC ACID [2]: 0.43 mg/dL
- ABSOLUTE BASOPHIL [3]: 0 CELLS/uL
- ABSOLUTE EOSINOPHIL [3]: 0 CELLS/uL
- ABSOLUTE LYMPHOCYTE [3]: 3873.67 CELLS/uL
- ABSOLUTE MONOCYTE [3]: 49.33 CELLS/uL
- ABSOLUTE SEGMENTED NEUTROPHIL [3]: 210.33 CELLS/uL
- BASOPHIL [3]: 0%
- EOSINOPHIL [3]: 0%
- ERYTHROCYTE COUNT [3]: 5.43 x10E6/uL
- HEMATOCRIT [3]: 33.9%
- HEMOGLOBIN [3]: 13.27 G/DL
- LEUKOCYTE COUNT [3]: 4.13 x10E3/uL
- LYMPHOCYTE [3]: 93.33%
- MEAN CORPUSCULAR HEMOGLOBIN [3]: 24.43 pg
- MEAN CORPUSCULAR HEMOGLOBIN CONCENTRATION [3]: 39.13 G/DL
- MEAN CORPUSCULAR VOLUME [3]: 62.37 fL
- MONOCYTE [3]: 1%
- NEUTROPHIL [3]: 5.67%
- NUCLEATED RED BLOOD CELLS [3]: 0 /100WBC
- PLATELET COUNT [3]: 1552.67 x10E3/uL
- ALANINE AMINOTRANSFERASE [3]: 57.33 u/L
- ALBUMIN [3]: 4.33 G/DL
- ALKALINE PHOSPHATASE [3]: 297.33 u/L
- ASPARTATE AMINOTRANSFERASE [3]: 75.67 u/L
- BLOOD UREA NITROGEN [3]: 15.33 mg/dL
- CARBON DIOXIDE [3]: 34 mmol/L
- CHLORIDE [3]: 97.67 MEQ/L
- CHOLESTEROL [3]: 81 mg/dL
- CREATINE PHOSPHOKINASE [3]: 273.67 u/L
- CREATININE [3]: 0.13 mg/dL
- GLUCOSE [3]: 134.67 mg/dL
- LACTATE DEHYDROGENASE [3]: 135.33 u/L
- LIPASE [3]: 10 u/L
- PHOSPHORUS [3]: 9.93 mg/dL
- POTASSIUM [3]: 6 MEQ/L
- SODIUM [3]: 143.97 MEQ/L
- TOTAL BILIRUBIN [3]: 0.17 mg/dL
- TOTAL PROTEIN [3]: 6.13 G/DL
- URIC ACID [3]: 0.97 mg/dL
